Molecular target: T1, Human CARM1 (PRMT4) (Homo sapiens, UniProt Q86X55)
T1 construct: Flag-CARM1-His; made in house; host or cells: HEK 293F cells (BacMam baculovirus, pFastBacMam)
T1 sequence (Q86X55 2-585 isoform Q86X55-1): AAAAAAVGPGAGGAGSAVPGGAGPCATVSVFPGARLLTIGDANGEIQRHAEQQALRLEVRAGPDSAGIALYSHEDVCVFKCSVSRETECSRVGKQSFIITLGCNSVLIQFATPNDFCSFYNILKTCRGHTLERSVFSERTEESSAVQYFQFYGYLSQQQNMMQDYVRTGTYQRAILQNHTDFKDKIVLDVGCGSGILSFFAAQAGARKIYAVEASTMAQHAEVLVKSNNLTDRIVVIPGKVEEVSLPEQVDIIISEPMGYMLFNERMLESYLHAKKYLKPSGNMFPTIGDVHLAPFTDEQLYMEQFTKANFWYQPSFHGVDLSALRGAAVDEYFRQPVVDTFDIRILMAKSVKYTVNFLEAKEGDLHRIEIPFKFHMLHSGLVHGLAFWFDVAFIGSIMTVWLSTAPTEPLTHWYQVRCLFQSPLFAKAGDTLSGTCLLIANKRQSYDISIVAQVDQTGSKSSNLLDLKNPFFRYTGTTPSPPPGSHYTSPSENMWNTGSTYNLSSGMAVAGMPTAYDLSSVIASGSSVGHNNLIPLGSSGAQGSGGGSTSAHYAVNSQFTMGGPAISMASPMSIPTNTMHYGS
Assay: CARM1 biochemical assay (3H-SAM Flashplate, peptide substrate)
Conditions: read-out: CARM1_ IC50
In short: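 FLAG/His-tagged human CARM1 (isoform 1, Δ539-561, baculovirus-expressed), 0.25 nM, preincubated 30 min at room temperature with compound (2% DMSO) in 20 mM Bicine pH 7.6, then reacted with 30 nM 3H-SAM and 250 nM biotinylated H3 16-30 peptide (R26 monomethyl). Stopped with 300 uM cold SAM; labelled peptide captured on streptavidin Flashplate; % inhibition versus DMSO and 1 mM SAH controls fitted to a 4- or 3-parameter curve.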

IC50 [nM]	Structure (SMILES)
13.2	CNCCN(C)Cc1cccc(-c2cc(NC3CCOCC3)c3cnn(C(C)C)c3n2)c1 [Compound 76]
3870	COc1cccc(Cn2cnc3ccc(-c4ccc(CN(C)CCN)cc4)cc32)c1 [Compound 8]
27.6	CNCCN(C)Cc1cccc(-c2cc(N3CCC(C(F)(F)F)CC3)c3cnn(C(C)C)c3n2)c1 [Compound 50]
19.5	CNCCN(C)Cc1cccc(-c2nc(NCc3ccncc3)c3cnn(C4CC4)c3n2)c1 [Compound 69]
19.9	CCOc1cc(-c2cccc(CN(C)CCNC)c2)nc2c1cnn2C(C)C [Compound 53]
32.4	CNCCN(C)Cc1cccc(-c2cc(C(=O)NCc3ccccn3)c3cnn(C(C)C)c3n2)c1 [Compound 98]
6830	Cc1c(C(=O)NCc2ccccc2)cc(-c2ccc(CN(C)CCN)cc2)c2cn[nH]c12 [Compound 7]
1400	CNCCN(C)Cc1cccc(-c2cnc3c(c2)c(C2CC2)nn3CC2CCOCC2)c1 [Compound 4]
38.4	CNCCN(C)Cc1cccc(-c2cc(C#N)c3cnn(C(C)C)c3n2)c1 [Compound 74]
154	CCC(O)c1cc(-c2cccc(CN(C)CCNC)c2)nc2c1cnn2C(C)C (centres unmarked) [Compound 48]
18	CNCCN(C)Cc1cccc(-c2cc(C(=O)NCCCCC(=O)NCC3CCOCC3)c3cnn(C(C)C)c3n2)c1 [Compound 118]
6870	COc1ccccc1-c1nc2ccc(-c3ccc(CNCCN)cc3)cc2[nH]1 [Compound 115]
3700	CNCCN(C)Cc1cccc(-c2ccc3cnn(C(C)C)c3c2)c1 [Compound 100]
4270	COc1cccc(CCn2cnc3ccc(-c4ccc(CNCCN)cc4)cc32)c1 [Compound 94]
22.4	CNCCN(C)Cc1cccc(-c2cc(OC3CCOC3)c3cnn(C(C)C)c3n2)c1 (centres unmarked) [Compound 102]
46	CC(C)n1ncc2c(C(=O)N(C)[C@@H](C)c3ccccc3)cc(-c3cccc(CN(C)CCN)c3)cc21 [Compound 3]
35.5	CNCCN(C)Cc1cccc(-c2cc(N3CCCC(C#N)C3)c3cnn(C(C)C)c3n2)c1 (centres unmarked) [Compound 55]
8130	Cc1ccccc1Cn1cnc2ccc(-c3ccc(CNCCN)cc3)cc21 [Compound 82]
4270	NCCNCc1ccc(-c2ccc3ncn(CC4CCCNC4)c3c2)cc1 (centres unmarked) [Compound 81]

IC50 [nM]	Structure (SMILES)
36.8	CNCCN(C)Cc1cccc(-c2cc(C(=O)NC3CCOCC3)c3cnn(C4CC4)c3n2)c1 [Compound 87]
17.9	CNCCN(C)Cc1cccc(-c2nc(NC3CC3)c3cnn(C4CC4)c3n2)c1 [Compound 114]
131	CCS(=O)(=O)Nc1cc(-c2cccc(CN(C)CCN)c2)nc2c1cnn2C(C)C [Compound 111]
109	CCNc1cc(-c2cccc(CN(C)CCNC)c2)nc2c1cnn2C(C)C [Compound 72]
18.5	CNCCN(C)Cc1cccc(-c2nc(NCc3cnn(C)c3C)c3cnn(C4CC4)c3n2)c1 [Compound 57]
35.6	CNCCN(C)Cc1cccc(-c2cc(C(=O)NCc3cc(C)nn3C)c3cnn(C(C)C)c3n2)c1 [Compound 120]
23.9	CNCCN(C)Cc1cccc(-c2cc(C(=O)NCCCCCC(=O)NCC3CCOCC3)c3cnn(C(C)C)c3n2)c1 [Compound 112]
8.11	CC(C)NC(=O)Nc1cc(-c2cccc(CN(C)CCN)c2)nc2c1cnn2C(C)C [Compound 86]
3.24	CN(CCN)Cc1cccc(-c2nc(NCc3cn4ccsc4n3)c3cnn(C4CC4)c3n2)c1 [Compound 5]
23.4	CC(C)n1ncc2c(NC(=O)N(C)C)cc(-c3cccc(CN(C)CCN)c3)nc21 [Compound 116]
4.04	Cc1c(CNc2nc(-c3cccc(CN(C)CCN)c3)nc3c2cnn3C2CC2)cnn1C [Compound 52]
36.5	CNCCN(C)Cc1cccc(-c2cc(N(C)C3CC3)c3cnn(C(C)C)c3n2)c1 [Compound 95]
13.5	CNCCN(C)Cc1cccc(-c2cc(C(=O)NCCCCC(=O)NCc3ccn(C)n3)c3cnn(C(C)C)c3n2)c1 [Compound 122]
25.7	CNCCN(C)Cc1cccc(-c2cc(C(=O)NCCC(=O)NCc3ccn(C)n3)c3cnn(C(C)C)c3n2)c1 [Compound 83]
17	CNCCN(C)Cc1cccc(-c2nc(NCc3cccnc3)c3cnn(C4CC4)c3n2)c1 [Compound 63]
6.32	CN(CCN)Cc1cccc(-c2nc(NCc3ccncc3)c3cnn(C4CC4)c3n2)c1 [Compound 66]
29.6	CNCCN(C)Cc1cccc(-c2cc(NC(=O)N(C)C)c3cnn(C(C)C)c3n2)c1 [Compound 123]
22.2	CNCCN(C)Cc1cccc(-c2cc(NC3COC3)c3cnn(C(C)C)c3n2)c1 [Compound 58]
14	CNCCN(C)Cc1cccc(-c2cc(NC(=O)NC(C)C)c3cnn(C(C)C)c3n2)c1 [Compound 85]

IC50 [nM]	Structure (SMILES)
4810	COc1ccccc1Cn1cnc2ccc(-c3ccc(CNCCN)cc3)cc21 [Compound 80]
70.2	CNCCN(C)Cc1cccc(-c2cc(NC)c3cnn(C(C)C)c3n2)c1 [Compound 121]
10.6	CNCCN(C)Cc1cccc(-c2cc(N3CCC(C#N)CC3)c3cnn(C(C)C)c3n2)c1 [Compound 93]
4.77	CN(CCN)Cc1cccc(-c2nc(N(C)C3CCOCC3)c3cnn(C4CC4)c3n2)c1 [Compound 119]
33.4	CNCCN(C)Cc1cccc(-c2cc(C(=O)NCCCCCC(=O)NCc3ccn(C)n3)c3cnn(C(C)C)c3n2)c1 [Compound 117]
57.7	CNCCN(C)Cc1cccc(-c2cc(N(C)C)c3cnn(C(C)C)c3n2)c1 [Compound 103]
16.5	CNCCN(C)Cc1cccc(-c2cc(C(=O)NCCCC(=O)NCc3ccn(C)n3)c3cnn(C(C)C)c3n2)c1 [Compound 88]
26.1	CC(C)n1ncc2c(C(=O)NCc3ccccc3Cl)cc(-c3cccc(CN(C)CCN)c3)nc21 [Compound 54]
707	CC(C)n1cc2c(Cl)cc(-c3cccc(CN(C)CCN)c3)nc2n1 [Compound 59]
75.8	CC(C)n1ncc2c(C(=O)N[C@@H](C)c3ccccc3)cc(-c3cccc(CNCCN)c3)cc21 [Compound 125]
5.22	CC(C)n1ncc2c(N3CCOCC3)cc(-c3cccc(CN(C)CCN)c3)nc21 [Compound 61, N1-(3-(1-isopropyl-4-morpholino-1H-pyrazolo[3,4-b]pyridin-6-yl)benzyl)-N1-methylethane-1,2-diamine]
18.1	CNCCN(C)Cc1cccc(-c2cc(C(=O)NCC3CCOCC3)c3cnn(C(C)C)c3n2)c1 [Compound 105]
5.11	CC(C)n1ncc2c(NC3CCOCC3)cc(-c3cccc(CN(C)CCN)c3)nc21 [Compound 101]
23.8	CNCCN(C)Cc1cccc(-c2nc(NCc3cn4ccsc4n3)c3cnn(C4CC4)c3n2)c1 [Compound 6]
25.8	CC(C)n1ncc2c(NS(=O)(=O)N(C)C)cc(-c3cccc(CN(C)CCN)c3)nc21 [Compound 107]
8190	Cc1ccc(Cn2cnc3ccc(-c4ccc(CNCCN)cc4)cc32)cc1 [Compound 97]
8.42	CN(CCN)Cc1cccc(-c2nc(NC3CC3)c3cnn(C4CC4)c3n2)c1 [Compound 96]
381	CNCCN(C)Cc1cccc(-c2ccc3cnn(C(C)C)c3n2)c1 [Compound 73]
